Source: patent US7018803B2, “Inhibitors of collagen assembly” (Drexel University College of Medicine, priority 1997, dated 2006)
No end group written: not given here.

Tests used:
type I collagen = type I collagen (Homo sapiens, UniProt P02452); assay: Phage display peptide library panning, ligand type I collagen in all three cycles; assay type: binding; details: ligand Type I Collagen x3
Description: (§1) A comrnmercially-available phage-display peptide library was used to identify peptides that bind to the telopeptide binding region of type I collagen (i.e. amino acid residues 776–797). The library comprised phage particles having about 1.9×10^9 distinct linear peptide sequences.
(§2) For the experiments described in this Example, either type I collagen or a 22-mer synthetic peptide having the amino acid sequence of residues 776–797 of type I collagen was bound to the walls of individual wells of microtiter plates. Aliquots of the phage-display peptide library were added to and incubated with the wells. Thereafter, the microtiter wells were rinsed to remove non-specifically-binding library particles, and specifically-binding library particles were eluted using a solution comprising at least one of: • the 22-mer synthetic peptide having the amino acid sequence of residues 776–797 of type I collagen; • type I collagen; and • glycine HCl buffer having a pH of 2.2.
(§3) Eluted specifically-binding library particles were added to and incubated with microtiter plates having either type I collagen or the 22-mer synthetic peptide bound to the wells thereof, and washing and elution steps were repeated. A total of three cycles of incubation-washing-elution were performed. Following these three cycles, specifically-binding phage particles were isolated, and the amino acid sequence of the peptide encoded by each of these particles was determined by amplifying and sequencing the nucleic acid contained within the particle.
Amino acid sequences of the random peptide region carried by discrete specifically-binding phage particles are indicated in Table II, together with the identity of the ligand bound to the microtiter wells in each of the three incubation-washing-elution cycles. […]

[1] = target: T1, α1-776/796 (telopeptide binding region of type I collagen) (Homo sapiens, UniProt P02452); assay: Phage display peptide library panning, ligand α1-776/796 peptide in all three cycles; details: ligand α1-776/796 x3
T1 construct: host or cells: synthetic peptide
Description: as §1, §2, §3
Amino acid sequences of the random peptide region carried by discrete specifically-binding phage particles are indicated in Table II, together with the identity of the ligand bound to the microtiter wells in each of the three incubation-washing-elution cycles. These isolated peptides, or peptides having no more than about fifty, preferably no more than twenty, even more preferably no more than ten, and still more preferably no more than five amino acid residues at one or both ends thereof, may be used to inhibit collagen self-assembly by contacting a collagen molecule such as a collagen triple helix, with one of these peptides.

[2] = target: T2, type I collagen (pCcollagen I) (Homo sapiens, UniProt P02452); assay type: biochemical; details: for inhibition of fibril assembly (in words): peptide 2.5 mM
T2 construct: made in house; host or cells: cultured human skin fibroblasts (endogenous procollagen purified from the medium, 14C-labelled)
Description: Assembly of collagen I into fibrils de novo was assayed under conditions employed previously (Miyahara et al., 1982, J. Biol. Chem. 257:8442–8448; Kadler et al., 1987, J. Biol. Chem. 262:15696–15701; Kadler et al., 1990, Ann. N.Y. Acad. Sci. 580:214–224; Kadler et al., 1990, Biochem. J. 268:339–343; Fertala et al., 1996, J. Biol. Chem. 271:14864–14869). In brief, ^14C-labeled type I procollagen was recovered from the medium of cultured human skin fibroblasts and was purified with two chromatographic steps to homogeneity. The type I procollagen was processed to pccollagen I by cleavage with procollagen N-proteinase purified from organ cultures of chick embryo tendons. “pCcollagen” is a partially processed procollagen which is missing the […]. The pCcollagen was then isolated on a gel filtration column. Fibril assembly was assayed in a […] reaction volume in a […] plastic centrifuge tube sealed with a plunger and containing a physiological bicarbonate buffer, […] pCcollagen I, and 15 units/ml procollagen C-proteinase purified from chick embryo tendons. Potentially inhibitory peptides were added to the reaction mixture to final concentrations of 0.5 to 2.5 mM in […] of buffer. After incubation for 0.5 to 24 hours at 37° C., the sample was centrifuged 13,000×g for 10 min. The pellet and supemate fractions were separated by electrophoresis on a 7.5% polyacrylamide gel in SDS and the gel assayed either with a phosphor storage imager (Molecular Dynamics) or by staining with colloidal Coomassie blue (Brilliant Blue, Sigma) and analysis with a densitometer (Personal Densitometer, Molecular Dynamics). Alternatively, the reaction was carried out in a sealed chamber on a microscopic slide and followed by Dark field light microscopy (Zeiss model 009).
F6 contained sequences that spanned the vertebrate collagenase cleavage site of -Gly-le- in the D4 period of the α1(I) chain. […] The peptides were added in concentrations of 2.5 mM to the system for assaying fibril formation by the cleavage of pCcollagen with C-proteinase (Miyahara et al., 1982, J. Biol. Chem. 257:8442–8448; Kadler et al., 1987, J. Biol. Chem. 262:15696–15701; Kadler et al., 1990, Ann. N.Y. Acad. Sci. 580:214–224; Kadler et al., 1990, Biochem. J. 268:339–343; Fertala et al., 1996, J. Biol. Chem. 271:14864–14869).

[3] = target: T3, type I collagen (monomeric collagen, Vitrogen 100) (Bos taurus, UniProt P02453); assay: Competition binding assay on microtiter plates with biotinylated telopeptides
T3 construct: purchased Collagen Biomaterials Vitrogen 100
Description: A collagen assembly inhibitory peptide is “biologically active” if it is capable of inhibiting collagen self-assembly in any one of the assays described herein. For example, in a high throughput assay described herein in the description of the data shown in FIGS. 8 and 9, a series of wells in a microtiter plate are coated with monomeric collagen. An amount of HCl is added to each well and the plates are dried. The plates are rinsed in buffer and bovine serum albumin (BSA) is added to block non-specific binding sites on the collagen. Samples containing labeled peptide (for example, biotinylated peptide) which is known to inhibit collagen self-assembly and unlabeled test peptide at various concentrations are premixed and are added to the wells. […] The wells are incubated for a period of time, the plates are washed and streptavidin conjugated to alkaline phosphatase is added. Incubation is continued for a further period of time following which a developing reagent is added to the wells. The amount of binding of the labeled peptide to the collagen is assessed and the degree of inhibition of binding by the test peptide is also assessed. Any test peptide which inhibits binding of the labeled peptide is isolated and is tested further for the ability to inhibit collagen self-assembly in the assays described herein in the description of FIGS. 1, 2 and 3.
To define the telopeptide binding site with a competitive assay, 96-well titiation plates (Immulon 3, Dynatech Laboratories, Inc.) were used. Seventy microliters of the solution containing […] of monomeric collagen (Vitrogen 100, Collagen Biomaterials) in 0.01 N HCl was added to each well, and the plates were dried at room temperature. The plates were rinsed with sterile phosphate buffered saline and non-specific binding sites were blocked with 1% bovine serum albumin. […] As a negative control, peptide α2-218/233 was used at concentrations from […]. […] After 2 hours of incubation, the reaction was measured with microtiter plate reader (Dynatech Laboratories) using a 405 nanometer filter. […]

T2 sequence (P02452 162-1218 limits assumed): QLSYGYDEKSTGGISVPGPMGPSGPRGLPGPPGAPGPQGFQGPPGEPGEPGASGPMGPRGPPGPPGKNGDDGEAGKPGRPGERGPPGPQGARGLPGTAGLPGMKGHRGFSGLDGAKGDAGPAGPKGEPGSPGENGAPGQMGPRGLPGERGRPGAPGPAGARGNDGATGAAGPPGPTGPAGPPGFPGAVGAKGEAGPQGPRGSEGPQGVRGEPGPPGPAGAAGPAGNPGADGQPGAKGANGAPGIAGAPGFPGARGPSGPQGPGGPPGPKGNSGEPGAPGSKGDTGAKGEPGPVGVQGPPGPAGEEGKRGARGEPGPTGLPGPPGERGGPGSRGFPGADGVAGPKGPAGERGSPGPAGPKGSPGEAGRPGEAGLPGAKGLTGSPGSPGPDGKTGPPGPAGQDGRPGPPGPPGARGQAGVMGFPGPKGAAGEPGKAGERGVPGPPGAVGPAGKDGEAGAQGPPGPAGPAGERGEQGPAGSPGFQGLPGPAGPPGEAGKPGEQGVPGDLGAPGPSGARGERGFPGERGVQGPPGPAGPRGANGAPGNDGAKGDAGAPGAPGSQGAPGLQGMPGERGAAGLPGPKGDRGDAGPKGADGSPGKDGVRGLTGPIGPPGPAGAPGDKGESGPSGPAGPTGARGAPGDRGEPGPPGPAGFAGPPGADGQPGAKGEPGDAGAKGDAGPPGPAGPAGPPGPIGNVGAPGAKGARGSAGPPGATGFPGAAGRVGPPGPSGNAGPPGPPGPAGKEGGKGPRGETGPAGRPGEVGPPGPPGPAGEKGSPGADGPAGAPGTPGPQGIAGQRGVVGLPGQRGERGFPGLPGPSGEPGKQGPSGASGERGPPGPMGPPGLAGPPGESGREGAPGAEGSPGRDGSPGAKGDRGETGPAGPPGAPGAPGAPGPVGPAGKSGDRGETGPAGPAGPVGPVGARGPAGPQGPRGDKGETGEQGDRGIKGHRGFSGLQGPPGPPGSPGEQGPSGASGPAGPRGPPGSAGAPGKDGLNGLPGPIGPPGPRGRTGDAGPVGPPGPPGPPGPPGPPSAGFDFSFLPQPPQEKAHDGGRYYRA
T2 sequence (P08123 80-1119 partner limits assumed): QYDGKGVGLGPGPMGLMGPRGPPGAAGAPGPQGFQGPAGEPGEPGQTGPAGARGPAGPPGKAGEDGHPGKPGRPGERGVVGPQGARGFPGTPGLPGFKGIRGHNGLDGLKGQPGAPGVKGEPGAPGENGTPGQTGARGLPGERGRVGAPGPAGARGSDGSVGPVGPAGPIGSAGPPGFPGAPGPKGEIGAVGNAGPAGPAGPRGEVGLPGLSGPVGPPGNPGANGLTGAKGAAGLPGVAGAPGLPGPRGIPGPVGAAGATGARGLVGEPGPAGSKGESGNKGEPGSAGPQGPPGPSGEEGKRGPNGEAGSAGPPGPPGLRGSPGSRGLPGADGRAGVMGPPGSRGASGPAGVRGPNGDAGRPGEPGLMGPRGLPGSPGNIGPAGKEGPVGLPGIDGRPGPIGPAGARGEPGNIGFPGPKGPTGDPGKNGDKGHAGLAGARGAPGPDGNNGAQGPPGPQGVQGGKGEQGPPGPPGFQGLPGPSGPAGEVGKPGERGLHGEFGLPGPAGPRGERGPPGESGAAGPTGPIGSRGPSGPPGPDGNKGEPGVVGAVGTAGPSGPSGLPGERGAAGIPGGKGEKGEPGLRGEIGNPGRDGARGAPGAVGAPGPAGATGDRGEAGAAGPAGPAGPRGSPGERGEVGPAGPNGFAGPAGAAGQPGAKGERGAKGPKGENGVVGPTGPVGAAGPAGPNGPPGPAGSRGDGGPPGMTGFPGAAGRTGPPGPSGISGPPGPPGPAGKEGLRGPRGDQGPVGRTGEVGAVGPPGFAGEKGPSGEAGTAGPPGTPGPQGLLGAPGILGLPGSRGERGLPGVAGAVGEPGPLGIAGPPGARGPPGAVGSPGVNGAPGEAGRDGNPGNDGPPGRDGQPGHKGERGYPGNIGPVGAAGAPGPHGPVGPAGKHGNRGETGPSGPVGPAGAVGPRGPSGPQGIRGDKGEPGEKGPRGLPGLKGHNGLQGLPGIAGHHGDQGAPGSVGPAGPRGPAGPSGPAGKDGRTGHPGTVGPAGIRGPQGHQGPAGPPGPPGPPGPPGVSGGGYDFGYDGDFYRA
Sequence of type I collagen (P02452 162-1218 limits assumed): as the sequence (P02452 162-1218 limits assumed) above
Sequence of type I collagen (P08123 80-1119 partner limits assumed): as the sequence (P08123 80-1119 partner limits assumed) above
T3 sequence (P02453 178-1191 limits assumed): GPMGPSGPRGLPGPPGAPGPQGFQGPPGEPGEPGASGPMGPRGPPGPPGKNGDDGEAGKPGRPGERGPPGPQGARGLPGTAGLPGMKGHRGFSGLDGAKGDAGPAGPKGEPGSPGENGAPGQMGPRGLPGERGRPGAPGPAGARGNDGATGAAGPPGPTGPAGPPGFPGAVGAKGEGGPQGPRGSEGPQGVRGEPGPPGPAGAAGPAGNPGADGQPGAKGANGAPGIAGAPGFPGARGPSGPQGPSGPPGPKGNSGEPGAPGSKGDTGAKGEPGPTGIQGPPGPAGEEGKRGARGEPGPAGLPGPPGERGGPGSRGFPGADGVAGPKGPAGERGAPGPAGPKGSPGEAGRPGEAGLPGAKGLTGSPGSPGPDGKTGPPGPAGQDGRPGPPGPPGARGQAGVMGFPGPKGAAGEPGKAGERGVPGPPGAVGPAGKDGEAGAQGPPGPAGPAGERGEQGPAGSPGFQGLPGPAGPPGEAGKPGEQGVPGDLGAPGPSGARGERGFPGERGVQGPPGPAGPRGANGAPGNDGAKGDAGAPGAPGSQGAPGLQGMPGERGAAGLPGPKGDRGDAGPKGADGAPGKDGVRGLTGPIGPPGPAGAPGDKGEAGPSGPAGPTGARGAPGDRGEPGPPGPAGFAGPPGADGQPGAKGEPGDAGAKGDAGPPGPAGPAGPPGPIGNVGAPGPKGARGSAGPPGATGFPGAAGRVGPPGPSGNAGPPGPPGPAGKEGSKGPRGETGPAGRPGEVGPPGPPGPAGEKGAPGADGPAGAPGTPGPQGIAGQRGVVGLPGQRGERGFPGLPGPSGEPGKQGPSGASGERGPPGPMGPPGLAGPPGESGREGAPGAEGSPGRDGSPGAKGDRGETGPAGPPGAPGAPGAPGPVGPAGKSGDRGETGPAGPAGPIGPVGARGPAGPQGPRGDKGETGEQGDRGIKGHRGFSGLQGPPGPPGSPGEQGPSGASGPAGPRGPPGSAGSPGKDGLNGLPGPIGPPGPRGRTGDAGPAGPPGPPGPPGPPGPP

SHALPLTWSTAA (Phage Display Library Peptide)
# of Isolated Particles Having this Sequence (type I collagen; eluent α1-776/796): 10
# of Isolated Particles Having this Sequence ([1]; eluent α1-776/796): 1

GGGYDFGYD [Peptide F7]
inhibition of fibril assembly (in words) [2]: equally effective as the intact F3

QLLEPVNLSTGP (Phage Display Library Peptide)
# of Isolated Particles Having this Sequence ([1]; eluent α1-776/796): 7

GYDFGYDGDF [Peptide F9]
inhibition of fibril assembly (in words) [2]: Smaller effects

GGGSDSGSD [F7/B]
inhibition of fibril assembly (in words) [2]: abolished inhibitory effects

YGAGFDDGDYGYRYG [SC/F3, peptide having the same amino acid residues as F3, but in a scrambled order, reference compound]
inhibition of fibril assembly (in words) [2]: no effect

α1-776/797: peptide with the sequence of the amino acids in positions 776 to 797 of the α1(I) chain (IAGQRGVVGLPGQRGERGFPGL)
competition with binding of biotinylated C-telopeptide of the α1(I) chain (peptide F2) to type I collagen ([3]; 50 mM biotinylated F2, 10 to 500 mM competitor, 25° C., 12 h): effectively competed
competition with binding of biotinylated C-telopeptide of the α2(I) chain (peptide F3) to type I collagen ([3]; 50 mM biotinylated F3, 10 to 500 mM competitor, 25° C., 12 h): effectively competed

TFWHLTPPRGYY (Phage Display Library Peptide)
# of Isolated Particles Having this Sequence ([1]; eluent pH 2.2 buffer): 3→

GGGYSFGYS [F7/A]
inhibition of fibril assembly (in words) [2]: no effect on inhibition of fibril assembly

YGSPHPSRPPGA (Phage Display Library Peptide)
# of Isolated Particles Having this Sequence ([1]; eluent Type I Collagen): 10
# of Isolated Particles Having this Sequence ([1]; eluent α1-776/796): 1→

VHWWIPVSTGTA (Phage Display Library Peptide)
# of Isolated Particles Having this Sequence ([1]; eluent pH 2.2 buffer): 6→

DFRYRA [Peptide F10, DFRYRA]
inhibition of fibril assembly (in words) [2]: Smaller effects

QLSYGYDEKSTGGISVP [Peptide F4]
inhibition of fibril assembly (in words) [2]: almost completely inhibited

LIQPPRYSTTVS (Phage Display Library Peptide)
# of Isolated Particles Having this Sequence (type I collagen; eluent pH 2.2 buffer): 10

GGGYDFGYDGDFYRA [Peptide F3]
effect on fibril formation when added during the lag period ([2]; 2.5 mM added during the lag phase): inhibited fibril formation
effect on fibril assembly when added during the mid-propagation phase ([2]; 2.5 mM added during the mid-propagation phase): little of any effect
appearance of fibrils by Dark field light microscopy ([2]; 2.5 mM, sealed chamber, 37° C., 24 hours): No fibrils appeared
effect on fibril assembly if added at or before the first one-third of the lag phase ([2]; added at or before the first one-third of the lag phase): completely prevented fibril assembly
effect on fibril assembly if added after the first one-third of the lag phase ([2]; added thereafter): much less effect
inhibition of fibril assembly (in words) [2]: almost completely inhibited

GYDGDFYRA [Peptide F8]
inhibition of fibril assembly (in words) [2]: equally effective as the intact F3

AKGAAGLPGVAGAPGL [Peptide F1]
inhibition of fibril assembly (in words) [2]: little if any inhibition
competition for the binding site with biotinylated telopeptides ([3]; negative control, 10 to 500 mM): no competition

LLPHSVSIPPDA (Phage Display Library Peptide)
# of Isolated Particles Having this Sequence (type I collagen; eluent Type I Collagen): 10

ADGPAGAPGTPGPQGIAGQRGVVGL [Peptide F6]
inhibition of fibril assembly (in words) [2]: little if any inhibition
